Assay results from patent US6777414B1, “Nitrogen-containing heterocyclic compounds and benamide compounds and drugs containing the same” (Meiji Seika Kaisha, Ltd., priority 1999, dated 2004).

Columns and labels:
[1] = tested on: Hep G2 cells; experiment: Apolipoprotein B secretion inhibitory activity (sandwich ELISA of culture supernatant); type: cell-based; details: Homo sapiens, HepG2, test compound 1 μM
Experimental: Test 2: Apolipoprotein B Secretion Inhibitory Activity
The apolipoprotein B secretion inhibitory activity of compounds according to the present invention was examined using human hepatoma-derived cell line, Hep G2.
The test was carried out by partially modifying the method of Nagata et al. (Biochem. Pharmacol., 40, 843 (1990)) and the method of Furukawa et al. (J. Biol. Chem., 267, 22630 (1992)). Specifically, Hep G2 cells were cultivated in a Dulbecco modified Eagles's medium (DMEM) containing 10% fetal calf serum (FCS), 100 units/ml penicillin, and 100 μg/ml streptomycin on a 96-well plate. Thereafter, the medium was replaced by DMEM containing 1% bovine serum albumin. At the same time, the test compound was added to a final concentration of 1 μM, followed by cultivation, or cultivation was carried out without the addition of the test compound. Three hours after the replacement of the medium, acetic acid was added to a final concentration of 1 mM, and cultivation was continued for additional 4 hours. The amount of apolipoprotein B secreted in the supernatant of the culture thus obtained was determined by the sandwich ELISA method. Goat anti-human apolipoprotein B polyclonal antibody (CHEMICON) was used as the primary antibody, and mouse anti-human apolipoprotein B monoclonal antibody peroxydase conjugate (BIOSYS) was used as the secondary antibody.
The inhibition (%) of secretion of apolipoprotein B was calculated by the following equation.
Inhibition (%) of secretion of apolipoprotein B={1−(amount of apolipoprotein B secreted in the presence of test compound)/(amount of apolipoprotein B secreted in the absence of test compound)}×100

[2] = tested on: Hep G2 cells; experiment: Triglyceride biosynthesis inhibitory activity (14C-acetic acid incorporation into triglyceride); type: cell-based; details: Homo sapiens, HepG2, test compound 1 μM
Experimental: Test 1: Triglyceride Biosynthesis Inhibitory Activity
The triglyceride biosynthesis inhibitory activity of compounds according to the present invention was examined using human hepatoma-derived cell line, Hep G2.
The test was carried out by partially modifying the method of Nagata et al. (Biochem. Pharmacol., 40, 843 (1990)) and the method of Furukawa et al. (J. Biol. Chem., 267, 22630 (1992)). Specifically, Hep G2 cells were cultivated in a Dulbecco modified Eagles's medium (DMEM) containing 10% fetal calf serum (FCS), 100 units/ml penicillin, and 100 μg/ml streptomycin on a 96-well plate. Thereafter, the medium was replaced by DMEM containing 1% bovine serum albumin. At the same time, the test compound was added to a final concentration of 1 μM, followed by cultivation, or cultivation was carried out without the addition of the test compound. Three hours after the replacement of the medium, ^14C-acetic acid was added to a final concentration of 1 mM, and cultivation was continued for additional 4 hours. After the cells were washed with a phosphate buffer (pH 7.5) containing 150 mM sodium chloride, lipids within the cells were extracted with n-butanol. After the extraction, the extract was evaporated to dryness under a nitrogen stream. The solid obtained by the evaporation to dryness was dissolved in a minor amount of chloroform. The solution was developed by thin layer chromatography (development solvent: petroleum ether/diethyl ether/acetic acid=90/15/3) to separate a ^14C-triglyceride fraction, and the amount of ^14C-triglyceride produced was then determined with a liquid scintillation counter (Beckman, LS-6500).
The inhibition (%) of biosynthesis of triglyceride was calculated by the following equation.
Inhibition of biosynthesis of triglyceride (%)={1−(amount of ^14C-triglyceride produced in the presence of test compound)/(amount of ^14C-triglyceride produced in the absence of test compound)}×100

[3] = tested on: wistar rats (male); experiment: Acute toxicity test in rats; type: in vivo; details: orally administered 200 mg/kg, observed for 8 days
Experimental: (§1) Test 3: Acute Toxicity Test
(§2) For the compound prepared in Example 104, an acute toxicity test was carried out using mice and rats according to a conventional method.

[4] = tested on: ddY mice (male); experiment: Acute toxicity test in mice; type: in vivo; details: orally administered 200 mg/kg, observed for 8 days
Experimental: as §1, §2

Structure (SMILES)	inhibition at 1 µM [1]	inhibition at 1 µM [2]	Change in general conditions, such as weight, in acute toxicity test [3]	Survival in acute toxicity test [3]	Change in general conditions, such as weight, in acute toxicity test [4]	Survival in acute toxicity test [4]
CC(C)N(C(=O)c1cccc(N2CCN(CCC(c3ccccc3)c3ccccc3)CC2)c1)C(C)C [Example 5, N,N-Diisopropyl-3-[4-(3,3-diphenyl-1-propyl)piperazin-1-yl]benzamide]	92%	8%				
O=C1c2cc(N3CCN(CCCCC4(C(=O)NCC(F)(F)F)c5ccccc5-c5ccccc54)CC3)ccc2CCN1CC1CCCCO1 (centres unmarked) [Example 99, 2-(Tetrahydropyran-2-yl)methyl-7-[4-[4-[9-(2,2,2-trifluoroethylcarbamoyl)-9H-fluoren-9-yl]butyl]piperazin-1-yl]-3,4-dihydro-2H-isoquinolin-1-one]	≥ 80%	11%				
C=CCN(CC(F)(F)F)C(=O)C1(CCCCN2CCN(c3ccc4c(c3)C(=O)N(Cc3ccccc3)CC4)CC2)c2ccccc2-c2ccccc21 [Example 102, 7-[4-[4-[9-[Allyl-(2,2,2-trifluoroethyl)carbamoyl]-9H-fluoren-9-yl]butyl]piperazin-1-yl]-2-benzyl-3,4-dihydro-2H-isoquinolin-1-one]	80%	89%				
O=C1c2cc(N3CCN(CCC(c4ccccc4)c4ccccc4)CC3)ncc2CCN1Cc1ccccc1 [Example 104, 2-Benzyl-7-[4-(3,3-diphenyl-1-propyl)piperazin-1-yl]-3,4-dihydro-2H-2,6-naphthyridin-1-one]	84%	83%	any change in general conditions, such as a change in weight, did not occur	all the animals survived	any change in general conditions, such as a change in weight, did not occur	all the animals survived
O=c1c2cc(N3CCN(CCC(c4ccccc4)c4ccccc4)CC3)ccc2cnn1Cc1ccccc1 [Example 149, 2-Benzyl-7-[4-(3,3-diphenylpropyl)piperazin-1-yl]-2H-phthalazin-1-one]	70%	74%				
